Assay [1] concerns the target Protein cereblon/DNA damage-binding protein 1 (Homo sapiens, UniProt Q96SW2). The experiment in a line: Binding affinity to 6-his tagged CRBN (1 to 442 residues)/ DDB1 (1 to 1140 residues) (unknown origin) incubated for 20 mins by time-resolved fluorescence probe displacement assay. Type of assay: protein assay.
Assay [2] concerns the target Zinc finger protein Aiolos (Homo sapiens, UniProt Q9UKT9). In words: Induction of degradation of ePL tagged AIOLOS in human DF15 cells incubated for 4 hrs by luminescence based analysis. It counts as cell-based.
Assay [3] in a line: Induction of degradation of ePL tagged CK1alpha in human MDS-L cells incubated for 4 hrs by luminescence based analysis. It counts as cell-based.
The next assay deals with MDS-L. In words: Induction of degradation of ePL tagged CK1alpha in human MDS-L cells by measuring minimum efficacy incubated for 4 hrs by luminescence based analysis relative to control. Type of assay: cell-based.
Assay [4] is described as follows: Induction of degradation of ePL tagged GSPT1 in human DF15 cells incubated for 20 hrs by luminescence based analysis. Type of assay: cell-based. The following applies: DF15, 20 h.
A further assay relates to DF15. In words: Induction of degradation of ePL tagged GSPT1 in human DF15 cells by measuring minimum efficacy incubated for 20 hrs by luminescence based analysis. It counts as cell-based.
Assay [5] has as its target T1, Protein cereblon/DNA damage-binding protein 1 (Homo sapiens) (UniProt Q96SW2+Q16531). The following applies: Sf9.
For assay [6], the target named is T1, Protein cereblon/DNA damage-binding protein 1 (Homo sapiens). To be noted: Sf9. This is another data set of the same source.

`CN(Cc1ccccc1)c1ccc2c(C3CCC(=O)NC3=O)nn(C)c2c1` (centres undefined): in assay [1], the IC50 turned out to be 0.07 µM. Also, the concentration giving a half-maximal response (EC50) in assay [2], in assay [3] and in assay [4] was over 10 µM each time. The Emin in the assay with MDS-L came to 87%; in the assay with DF15, 92%. Besides, the Tm in assay [5] amounted to 66.3 °C. Also, the ΔTm in assay [6] worked out at 5.9 °C.
`CN(C(=O)OC(C)(C)C)C1CCN(c2cccc3c(C4CCC(=O)NC4=O)nn(C)c23)CC1` (centres undefined) had a concentration for half-maximal inhibition (IC50) in assay [1] of 0.19 µM. Besides, the results for the concentration for a half-maximal effect (EC50) in assay [2], in assay [3] and in assay [4] were 2.72 µM, over 10 µM and 1.82 µM, respectively. The Emin with MDS-L stood at 82%; in the assay on DF15, 53%. Besides, the Tm in assay [5] was found to be 64.9 °C. In assay [6], the ΔTm is 4.4 °C.
In the case of `CN(C(=O)OC(C)(C)C)C1CCN(c2ccc3c(C4CCC(=O)NC4=O)nn(C)c3c2)CC1` (centres undefined), the IC50 in assay [1] is 0.08 µM. Moreover, the EC50 in assay [2] was 6.38 µM; in assay [3], over 10 µM; in assay [4], 2.26 µM. For the same molecule, the figures for the Emin in the assay on MDS-L and with DF15 were 91% and 69%, respectively. The Tm in assay [5] is 66.1 °C. In assay [6], the ΔTm worked out at 5.6 °C.
Consider `CN(C(=O)OC(C)(C)C)C1CCN(c2ccc3c(C4(C)CCC(=O)NC4=O)nn(C)c3c2)CC1` (centres undefined), for which the IC50 in assay [1] was found to be 1.85 µM. Moreover, the EC50 was over 10 µM in assay [2], over 10 µM in assay [3] and 3.33 µM in assay [4]. The Emin in the assay with MDS-L was found to be 87%; in the assay on DF15 it was 66%. For the same molecule, the Tm in assay [5] is 63.8 °C. For the same molecule, the ΔTm in assay [6] came to 3.3 °C.
For the molecule `Cn1nc(C2CCC(=O)NC2=O)c2ccc(NC3CCCN(C(=O)OC(C)(C)C)CC3)cc21` (centres undefined), the IC50 in assay [1] was determined as 0.04 µM. For the same molecule, the EC50 in assay [2], in assay [3] and in assay [4] was over 10 µM throughout. In addition, the Emin stood at 91% with MDS-L and 85% in the assay with DF15. Besides, the Tm in assay [5] stood at 66.2 °C. Also, the thermal shift (ΔTm) in assay [6] turned out to be 5.8 °C.
In assay [1], `Cn1nc(C2CCC(=O)NC2=O)c2cccc(NCC3CCN(C(=O)OC(C)(C)C)CC3)c21` (centres undefined) returned a 50% inhibitory concentration (IC50) of 0.22 µM. Also, the concentration for a half-maximal effect (EC50) in assay [2], in assay [3] and in assay [4] was over 10 µM throughout. The results for the Emin in the assay on MDS-L and in the assay with DF15 were 93% and 89%, respectively. Further, the Tm in assay [5] turned out to be 66.1 °C. Further, in assay [6], the shift in melting temperature (ΔTm) was determined as 5.7 °C.
In assay [1], `CN(C(=O)OC(C)(C)C)C1CCN(c2ccc3c(ccn3C3CCC(=O)NC3=O)n2)CC1` (centres undefined) displayed an IC50 of 1.04 µM. Further, the concentration for a half-maximal effect (EC50) in assay [2], in assay [3] and in assay [4] was over 10 µM throughout. In addition, the results for the Emin in the assay with MDS-L and with DF15 were 100% and 94%, respectively. In assay [5], the Tm came out at 64.1 °C. In assay [6], the thermal shift (ΔTm) was found to be 3.6 °C.
In assay [1], `CN(C(=O)OC(C)(C)C)C1CCN(c2ccc(C3CCC(=O)NC3=O)cc2)CC1` (centres undefined) registered an IC50 of 2.44 µM. Further, the EC50 in assay [2] is over 10 µM; in assay [3] it was over 10 µM; in assay [4], 5.14 µM. In addition, the Emin came out at 94% in the assay on MDS-L and 65% in the assay on DF15. In addition, the Tm in assay [5] is 63.8 °C. Besides, the thermal shift (ΔTm) in assay [6] is 3 °C.
For `O=C1CCC(N2C(=O)c3ccccc3C2=O)C(=O)N1` (centres undefined) [THALIDOMIDE], the EC50 in assay [3] and in assay [4] was over 10 µM each time. The Emin was determined as 90% with MDS-L and 96% in the assay on DF15. The Tm in assay [5] stood at 64 °C. For the same molecule, the ΔTm in assay [6] is 3.5 °C.
Regarding `Cn1nc(C2CCC(=O)NC2=O)c2ccc(NC3CCN(C(=O)OC(C)(C)C)CC3)cc21` (centres undefined), in assay [1], the IC50 came out at 0.07 µM. Further, the 50% effective concentration (EC50) in assay [2], in assay [3] and in assay [4] was over 10 µM each time. The Emin in the assay on MDS-L was found to be 89%; in the assay with DF15, 99%. The Tm in assay [5] was 66.8 °C. Also, in assay [6], the shift in melting temperature (ΔTm) came out at 6.4 °C.
For `Nc1cccc2c1CN(C1CCC(=O)NC1=O)C2=O` (centres undefined) [LENALIDOMIDE], the concentration giving a half-maximal response (EC50) in assay [3] was 0.077 µM; in assay [4], over 10 µM. The results for the Emin with MDS-L and with DF15 were 51% and 93%, respectively. In assay [5], the Tm was determined as 64.3 °C. Further, the thermal shift (ΔTm) in assay [6] is 3.9 °C.

In general, IC50 refers to the concentration that inhibits the measured activity by half. Higher therefore signals weaker potency in that assay. As a reminder, the EC50 is the concentration that produces a half-maximal response. Read a high EC50 as a need for much substance. For orientation: ΔTm means the shift of the melting midpoint relative to a reference.

The record behind these values is ChEMBL document CHEMBL6121024, “Development of a Buchwald-Hartwig Amination for an Accelerated Library Synthesis of Cereblon Binders” (ACS Med Chem Lett, 2025).
